Like-named read-outs stand apart in the source and are kept apart here.
Target: T1, human mAChR M1 (Homo sapiens, UniProt P11229)
T1 sequence (P11229 1-460): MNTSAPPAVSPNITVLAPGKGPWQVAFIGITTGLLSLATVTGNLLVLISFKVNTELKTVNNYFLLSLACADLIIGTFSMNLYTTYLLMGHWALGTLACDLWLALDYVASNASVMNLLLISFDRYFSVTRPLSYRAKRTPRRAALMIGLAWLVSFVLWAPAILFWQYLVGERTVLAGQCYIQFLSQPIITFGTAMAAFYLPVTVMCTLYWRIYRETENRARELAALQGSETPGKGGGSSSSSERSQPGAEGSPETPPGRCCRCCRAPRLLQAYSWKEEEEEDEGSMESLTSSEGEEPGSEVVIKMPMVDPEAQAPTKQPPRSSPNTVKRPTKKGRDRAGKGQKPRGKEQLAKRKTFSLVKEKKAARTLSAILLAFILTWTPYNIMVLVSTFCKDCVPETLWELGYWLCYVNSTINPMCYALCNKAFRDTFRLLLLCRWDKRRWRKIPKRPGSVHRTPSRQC
Assay: mAChR M1 cell-based functional assay: calcium mobilization, positive allosteric modulator mode (increase in EC20 acetylcholine response)
Conditions: for Emax: read-out: Human M1 Emax (%)
Summary of the method: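 Calcium-flux assay in CHO-K1 cells stably expressing human M1, loaded with Fluo-4 AM (50 min, 37 °C) and read at 1 Hz. Compound (11-point, 1:3 series) was added at 4 s, EC20 acetylcholine at 144 s and EC80 at 230 s. PAM activity is the concentration-dependent rise in the EC20 response, fitted with a four-parameter logistic.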

[1] = Table 2, human M1, read-out: Human M1 EC50

Row | SMILES | EC50 [1] [µM] | Emax (Table 2, human M1) [%] | EC50 (Table 1, mAChR M1 cell-based functional assay, PAM mode, species not given, read-out: EC50) [µM]
1 | CC(C)(C#N)NC(=O)c1cc(Cc2ccc(-n3cccn3)cc2)c2sccc2n1 [Compound 283, N-(1-cyano-1-methyl-ethyl)-7-[(4-pyrazol-1-ylphenyl)methyl]thieno[3,2-b]pyridine-5-carboxamide] | > 10 | 43.1 | 
2 | Cn1ccc(-c2ccc(Cc3cc(C(=O)NC4CCOCC4)nc4ccn(C)c34)cc2)n1 [Compound 473, 1-methyl-7-[[4-(1-methylpyrazol-3-yl)phenyl]methyl]-N-tetrahydropyran-4-yl-pyrrolo[3,2-b]pyridine-5-carboxamide] | 0.106 | 85.8 | 
3 | O=C(NCC1CCN1)c1cc(Cc2ccc(-n3cccn3)cc2)c2sccc2n1 (stereo not drawn) [Compound 292, N-(azetidin-2-ylmethyl)-7-[(4-pyrazol-1-ylphenyl)methyl]thieno[3,2-b]pyridine-5-carboxamide] | 0.225 | 81.8 | 
4 | Cc1csc2c(Cc3ccc(-c4ccn(C)n4)cc3)cc(C(=O)NC3CC(F)C3)nc12 (stereo not drawn) [Compound 308, N-(3-fluorocyclobutyl)-3-methyl-7-[[4-(1-methylpyrazol-3-yl)phenyl]methyl]thieno[3,2-b]pyridine-5-carboxamide] | 5.36 | 62.1 | 
5 | Cc1ccc(Cc2cc(C(=O)NC3CC(F)C3)nc3ccsc23)cn1 (stereo not drawn) [Compound 259, N-(3-fluorocyclobutyl)-7-[(6-methyl-3-pyridyl)methyl]thieno[3,2-b]pyridine-5-carboxamide] | > 10 | 56.2 | 
6 | Cc1ccc(Cc2cc(C(=O)N[C@@H]3COCC[C@H]3O)nc3c(C)csc23)cn1 [Compound 105] | 0.825 | 87.7 | 
7 | O=C(N[C@@H]1CCCCC[C@H]1O)c1cc(Cc2ccc(C(F)(F)F)nc2)c2sccc2n1 [Compound 94] | 1.25 | 84.6 | 
8 | Cc1ccc([C@@H](F)c2cc(C(=O)N[C@H]3CCCC[C@@H]3O)nc3ccsc23)cn1 [Compound 234] | 1.37 | 64.6 | 
9 | COCCCNC(=O)c1cc(Cc2ccc(-c3cncs3)cc2)c2sccc2n1 [Compound 404, N-(3-methoxypropyl)-7-[(4-thiazol-5-ylphenyl)methyl]thieno[3,2-b]pyridine-5-carboxamide] | 3.57 | 56.7 | 
10 | Cc1cc2nc(C(=O)NC3CCOCC3)cc(Cc3ccc(-n4cccn4)cc3)c2s1 [Compound 239, 2-methyl-7-[(4-pyrazol-1-ylphenyl)methyl]-N-tetrahydropyran-4-yl-thieno[3,2-b]pyridine-5-carboxamide] | 3.08 | 81.5 | 
11 | Cn1ccc(-c2ccc(Cc3cc(C(=O)NC4CC(F)C4)nc4ccsc34)cn2)n1 (stereo not drawn) [Compound 419, N-(3-fluorocyclobutyl)-7-[[6-(1-methylpyrazol-3-yl)-3-pyridyl]methyl]thieno[3,2-b]pyridine-5-carboxamide] | 0.76 | 70.1 | 
12 | Cc1cc2nc(C(=O)N[C@H]3CCCC[C@@H]3O)cc(Cc3ccc(-n4cccn4)cc3)c2s1 [Compound 237, N-[(1S,2S)-2-hydroxycyclohexyl]-2-methyl-7-[(4-pyrazol-1-ylphenyl)methyl]thieno[3,2-b]pyridine-5-carboxamide] | 0.455 | 85.2 | 
13 | Cn1cc(-c2ccc(Oc3cc(C(=O)N[C@H]4COCC[C@@H]4O)nc4ccsc34)c(F)c2)cn1 [Compound 8] |  |  | 7.79
14 | COCCCNC(=O)c1cc(Cc2ccc(-n3cccn3)cc2)c2sccc2n1 [Compound 430, N-(3-methoxypropyl)-7-[(4-pyrazol-1-ylphenyl)methyl]thieno[3,2-b]pyridine-5-carboxamide] | 1.08 | 72.9 | 
15 | Cn1ncc2nc(C(=O)NC3CC4(COC4)C3)cc(Cc3ccc(-n4cccn4)cc3)c21 [Compound 500, 1-methyl-N-(2-oxaspiro[3.3]heptan-6-yl)-7-[(4-pyrazol-1-ylphenyl)methyl]pyrazolo-[4,3-b]pyridine-5-carboxamide] | > 10 | 63.1 | 
16 | O=C(NCC1CCCCO1)c1cc(Cc2ccc(-n3cccn3)cc2)c2sccc2n1 (stereo not drawn) [Compound 289, 7-[(4-pyrazol-1-ylphenyl)methyl]-N-(tetrahydropyran-2-ylmethyl)thieno[3,2-b]pyridine-5-carboxamide] | 1.16 | 80.7 | 

Now from value to molecule:

Row | EC50 [1] [µM] | Emax (Table 2, human M1) [%] | EC50 (Table 1, mAChR M1 cell-based functional assay, PAM mode, species not given, read-out: EC50) [µM] | SMILES
17 | 0.0101 | 72.7 |  | O=C(N[C@H]1CCOC[C@@H]1O)c1cc(Cc2ccc(-c3cscn3)cc2)c2sccc2n1 [Compound 215, N-[(3R,4S)-3-hydroxytetrahydropyran-4-yl]-7-[(4-thiazol-4-ylphenyl)methyl]thieno[3,2-b]pyridine-5-carboxamide]
18 | 0.00474 | 59.8 |  | Cn1cc(-c2ccc(Cc3cc(C(=O)N[C@@H]4CCOC[C@H]4O)nc4ccsc34)cc2)nn1 [Compound 153, N-[(3S,4R)-3-hydroxytetrahydropyran-4-yl]-7-[[4-(1-methyltriazol-4-yl)phenyl]methyl]thieno[3,2-b]pyridine-5-carboxamide]
19 | 0.154 | 90.7 |  | O=C(N[C@@H]1CCCC[C@H]1O)c1cc(Cc2ccc(C(F)(F)F)nc2)c2sccc2n1 [Compound 90, N-[(1R,2R)-2-hydroxycyclohexyl]-7-[[6-(trifluoromethyl)-3-pyridyl]methyl]thieno[3,2-b]pyridine-5-carboxamide]
20 | 0.336 | 90.7 |  | Cc1nc(-c2ccc(Cc3cc(C(=O)N[C@H]4CC[C@@H]4O)nc4ccsc34)cc2)co1 [Compound 146, N-[(1S,2S)-2-hydroxycyclobutyl]-7-[[4-(2-methyloxazol-4-yl)phenyl]methyl]thieno[3,2-b]pyridine-5-carboxamide]
21 | 0.0833 | 76.6 |  | Cc1csc2c(Cc3ccc(-n4cccn4)cc3)cc(C(=O)N[C@@H]3CCOC[C@H]3O)nc12 [Compound 117, N-[(3S,4R)-3-hydroxytetrahydropyran-4-yl]-3-methyl-7-[(4-pyrazol-1-ylphenyl)methyl]thieno[3,2-b]pyridine-5-carboxamide]
22 | 0.15 | 82.9 |  | Cc1nc(-c2ccc(Cc3cc(C(=O)N[C@@H]4CCCCC[C@H]4O)nc4ccsc34)cc2)co1 [Compound 170, N-[(1R,2R)-2-hydroxycycloheptyl]-7-[[4-(2-methyloxazol-4-yl)phenyl]methyl]thieno[3,2-b]pyridine-5-carboxamide]
23 | 0.15 | 53.9 |  | Cn1cc(-c2ccc(Cc3cc(C(=O)NC4CCOCC4(C)C)nc4ccsc34)cc2)cn1 (stereo not drawn) [Compound 379, N-(3,3-dimethyltetrahydropyran-4-yl)-7-[[4-(1-methylpyrazol-4-yl)phenyl]methyl]thieno[3,2-b]pyridine-5-carboxamide]
24 | 1.05 | 68.7 |  | O=C(NC1COC1)c1cc(Cc2ccc(-n3cccn3)cc2)c2sccc2n1 [Compound 279, N-(oxetan-3-yl)-7-[(4-pyrazol-1-ylphenyl)methyl]thieno[3,2-b]pyridine-5-carboxamide]
25 | 0.0348 | 64.8 |  | Cn1ccc2nc(C(=O)N[C@H]3CCCC[C@@H]3O)cc(Cc3ccc(-c4cscn4)cc3)c21 [Compound 457, N-[(1S,2S)-2-hydroxycyclohexyl]-1-methyl-7-[(4-thiazol-4-ylphenyl)methyl]pyrrolo[3,2-b]pyridine-5-carboxamide]
26 | > 10 | 30.4 |  | O=C(NC1CC(F)(F)C1)c1cc(Cc2ccc(-c3nccs3)cc2)c2sccc2n1 [Compound 383]
